Entries after “also recorded” stand apart in the source; their conditions may differ. One block for each compound: values may come before it.
Columns and labels:
Hydra vulgaris [1] = assay: Regional ICW in Hydra (Protocol I); type: in vivo; conditions: 24 μM MM; for Regional ICW upon body column stimulation: 24 h, 405 nm, 1 s
Procedure: (§1) FIGS. 20A-20N—MM induce ICW and muscle contraction in vivo. (a) Image of a Hydra loaded into a microfluidic chamber with anatomical regions marked. Scale bar is 100 μm and applies to (a-c). (b) MM 1 (24 μM) loaded into Hydra for 24 h. (c) A Hydra expressing GCaMP7b in endodermal epitheliomuscular cells. The stimulation regions used for Protocols I and II are marked. Protocol 1 was used for body column stimulation (1 s pulse to a 10 μm diameter circular area) to trigger regional ICW. Protocol II was used for oral region stimulation (2 s pulse to the oral region, ~1000-2000 μm^2) to trigger whole-body contraction. (d) A regional ICW in a Hydra treated with MM 1 and stimulated with 405-nm light via Protocol I. The indicated times represent the time after stimulation at which the image was taken. Scale bar applies to both images and is 100 μm. (e-i) Responses observed from Hydra treated with (e) MM 1, (f) MM 2, (g) MM 3, (h) MM 4, or (i) DMSO control (“C”) and stimulated for 1 s using Protocol I. Bold, colored traces represent the average trace (n=25 across 5 Hydra). Gray traces represent individual experiments. (j) Bar graph showing ICW response rate and (k) box-and-whisker plot showing ICW delay time of Hydra stimulated using Protocol I across MM treatment conditions (n=25 experiments across at least 5 Hydra per condition). ICW responses were defined as ΔF/F0>1. (1) Representative contraction in a Hydra treated with MM 2 and stimulated via Protocol II. Scale bar applies to both images and is 100 μm. (m) Representative GCaMP7b fluorescence trace in a Hydra treated with MM 2 and stimulated using Protocol II. (n) Bar graph showing contractile response rates across treatment conditions for Hydra stimulated for 2 s using Protocol II (at least 50 experiments across ≥5 Hydra per condition). Error bars in bar graphs represent the standard error of the mean. See Example 6 for more info on the calculation of ICW and contractile response rates. For all plots, cyan lines indicate the time of stimulus with 405-nm light (9.0×10^2 W cm^−2), during which no data was collected. * P-value<0.05, ** P-value<0.01, *** P-value<0.001, **** P-value<0.0001.
(§2) Prior to stimulation experiments, Hydra were loaded with MM by incubating with solutions containing 24 μM of MM for 24 h (FIG. 20B). Distinct stimulation protocols were employed to cause either local ICW or whole-body contraction (FIG. 20C). First, treatment of MM-loaded Hydra with pulses of laser light administered to a small region of the body column (Protocol I) caused ICW emanating from the site of stimulation (FIGS. 20D and 21). Similar to ICW evoked in vitro, these ICW propagated throughout the Hydra body column according to the degree of electrical connectivity of the stimulated cells. Distinct propagation kinetics were observed when stimulating different regions of Hydra simultaneously. Second, MM activation was used to attempt to drive whole-body Hydra contractions by administering laser stimuli to the oral region (Protocol II).
(§3) Hydra Preparation, Stimulation, and Imaging: Hydra were raised in Hydra medium containing CaCl2·2H2O, MgCl2·6H2O, KNO3, NaHCO3, and MgSO4 in deionized water at 18 °C in a light-cycled (12 h light, 12 h dark) incubator. Hydra were fed with an excess of freshly brined Artemia Nauplii (Brine Shrimp Direct, Ogden, UT, #BSEP8Z) three times a week. All experiments were performed at room temperature after starving the animals for 2 days. The transgenic line expressing GCaMP6s under the Actin promoter in neurons was generated by embryonic microinjection by the Yuste lab at Columbia University (Addgene: plasmid #102558). The transgenic line expressing GCaMP7b under the Ef1α promoter in endodermal epitheliomuscular tissue was generated by embryonic microinjection in a collaboration by the Robinson lab (Rice University) and the Juliano Lab (University of California, Davis).
(§4) Hydra were incubated with chosen MM 24 h before imaging. […]

[2] = Extinction coefficient by UV-Vis; type: physicochemical; conditions: UV-Vis in spectral-grade water, 16 μM
Procedure: FIG. 13—Sample UV-Vis spectra of each MM taken at 16 μM in spectral-grade water.
(§5) Table 1. Properties of MM 1-4. Partition coefficients and total polar surface area were calculated using the molInspiration online calculator. milogP represents the logarithm of the partition coefficient between octanol and water, used to represent hydrophobicity (higher values are more hydrophobic). Rotation rates were provided using the thermodynamics of the thermal helix inversion step. MM structures provided for reference.

[3] = MM rotation rate (thermodynamics of the thermal helix inversion step); type: physicochemical; conditions: Table 1; from thermodynamics of thermal helix inversion
Procedure: as §5
Effects of Rotation Speed and Directionality: The propensity for unidirectional MM to rotate and exert mechanical force on their environment depend principally on two factors: the rotation rate and the photoconversion efficiency. Both of these depend on MM structure. The rotation rate is determined by the half-life of the thermal helix inversion, which is driven by the steric interactions governing the passage of the rotor over the stator (Pollard et al., 2007). The photoconversion efficiency, also known as the quantum yield of photoisomerization, or ΦP, represents the proportion of photons absorbed by the molecule that drive molecular rotation (as opposed to fluorescence or non-radiative decay processes). ΦP is primarily influenced by the electronic structure. MM directionality can also be influenced by structure, as the driving force for unidirectional rotation depends upon the presence of a stereogenic center.

Hydra vulgaris [4] = assay: Whole-body contraction of Hydra (Protocol II); type: in vivo; conditions: for Contraction rate compared with light alone: Fisher's Exact Test, MM 2 P<0.00001, MM 1 P=0.0199, MM 3 P=0.5325, MM 4 P=0.0439; for Contraction peaks relative to sham stimulus: sham light, 0% laser duty cycle; for Signaling / contraction in Hydra (summary): in vivo, MM + light
Procedure: as §1, §2, §3, §4

Compound: CC1Cc2ccc3ccccc3c2C1=C1c2ccccc2Sc2cc(NCCN(C)C)ccc21 (centres unmarked) [MM 1]
ICW delay (response) time (Hydra vulgaris [1]): 12.76 s
Regional ICW upon body column stimulation (Hydra vulgaris [1]): consistently elicited robust regional ICW
Extinction Coeff @ 400 nm [2]: ~11,000 L mol^−1cm^−1
Rotation rate [3]: 3 × 10^6 Hz
Contraction rate compared with light alone (Hydra vulgaris [4]): at a significantly higher rate than light alone
Contraction peaks relative to light stimulus (Hydra vulgaris [4]; Protocol II, with light): most often occur in concert with stimuli
Contraction peaks relative to sham stimulus (Hydra vulgaris [4]): do not occur in concert with sham stimulus
Success Rate (contractile response rate) (Hydra vulgaris [4]; with light, Protocol II): 68%
Total Null (Hydra vulgaris [4]; with light, Protocol II): 14
Total Successes (contractile responses) (Hydra vulgaris [4]; with light, Protocol II): 48
Success Rate (contractile response rate) (Hydra vulgaris [4]; without light (sham)): 29%
Total Null (Hydra vulgaris [4]; without light (sham)): 28
Total Successes (contractile responses) (Hydra vulgaris [4]; without light (sham)): 13

Extinction Coeff @ 400 nm [2]: ~7,500 L mol^−1cm^−1
Rotation rate [3]: 0.1 Hz
Compound: CC1Cc2cc(NCCN(C)C)c3ccccc3c2C1=C1c2ccccc2-c2ccccc21 (centres unmarked) [MM 3]
ICW delay (response) time (Hydra vulgaris [1]): 15.46 s
Regional ICW upon body column stimulation (Hydra vulgaris [1]): not significantly different from solvent-only controls
Contraction rate compared with light alone (Hydra vulgaris [4]): did not elicit contraction at a significantly higher rate than light alone
Contraction peaks relative to light stimulus (Hydra vulgaris [4]; Protocol II, with light): occasionally follow stimuli
Signaling / contraction in Hydra (summary) (Hydra vulgaris [4]): Small responses were observed
Contraction peaks relative to sham stimulus (Hydra vulgaris [4]): do not occur in concert with sham stimulus
Success Rate (contractile response rate) (Hydra vulgaris [4]; with light, Protocol II): 38%
Total Null (Hydra vulgaris [4]; with light, Protocol II): 2
Total Successes (contractile responses) (Hydra vulgaris [4]; with light, Protocol II): 18
Success Rate (contractile response rate) (Hydra vulgaris [4]; without light (sham)): 12%
Total Null (Hydra vulgaris [4]; without light (sham)): 17
Total Successes (contractile responses) (Hydra vulgaris [4]; without light (sham)): 12

Extinction Coeff @ 400 nm [2]: ~13,000 L mol^−1cm^−1
Rotation rate [3]: 3 × 10^6 Hz
Compound: CN(C)CCNc1ccc2c(c1)Sc1ccccc1C2=C1CCc2ccc3ccccc3c21 [MM 4]
ICW delay (response) time (Hydra vulgaris [1]): 16.6 s
Regional ICW upon body column stimulation (Hydra vulgaris [1]): consistently elicited robust regional ICW; also recorded: elicited regional ICW in Hydra despite causing only weak responses in vitro
Contraction rate compared with light alone (Hydra vulgaris [4]): more effective than light alone
Contraction peaks relative to light stimulus (Hydra vulgaris [4]; Protocol II, with light): most often occur in concert with stimuli
Signaling / contraction in Hydra (summary) (Hydra vulgaris [4]): able to drive non-trivial signaling behavior in vivo
Contraction peaks relative to sham stimulus (Hydra vulgaris [4]): do not occur in concert with sham stimulus
Success Rate (contractile response rate) (Hydra vulgaris [4]; with light, Protocol II): 65%
Total Null (Hydra vulgaris [4]; with light, Protocol II): 5
Total Successes (contractile responses) (Hydra vulgaris [4]; with light, Protocol II): 36
Success Rate (contractile response rate) (Hydra vulgaris [4]; without light (sham)): 20%
Total Null (Hydra vulgaris [4]; without light (sham)): 15
Total Successes (contractile responses) (Hydra vulgaris [4]; without light (sham)): 6
